# Target: T1, Menin (Homo sapiens, UniProt O00255)
# T1 sequence (O00255 whole entry): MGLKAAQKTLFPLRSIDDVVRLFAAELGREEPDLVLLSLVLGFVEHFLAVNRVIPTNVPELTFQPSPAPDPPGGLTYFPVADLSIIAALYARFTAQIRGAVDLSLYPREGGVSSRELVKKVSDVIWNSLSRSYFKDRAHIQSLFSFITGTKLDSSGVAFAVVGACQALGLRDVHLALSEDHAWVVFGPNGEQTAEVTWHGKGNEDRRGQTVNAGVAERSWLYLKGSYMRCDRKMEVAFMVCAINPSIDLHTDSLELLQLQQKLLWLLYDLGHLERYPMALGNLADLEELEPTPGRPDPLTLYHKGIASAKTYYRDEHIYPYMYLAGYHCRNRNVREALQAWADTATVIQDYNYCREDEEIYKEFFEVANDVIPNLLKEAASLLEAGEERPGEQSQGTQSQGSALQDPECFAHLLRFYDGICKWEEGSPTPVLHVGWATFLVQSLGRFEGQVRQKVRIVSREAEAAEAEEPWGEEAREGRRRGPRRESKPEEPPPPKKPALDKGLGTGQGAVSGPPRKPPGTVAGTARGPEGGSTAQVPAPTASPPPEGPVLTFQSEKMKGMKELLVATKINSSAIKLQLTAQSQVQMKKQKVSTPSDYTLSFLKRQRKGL
# Test: Fluorescence Polarization (FP) Assay
# Protocol: Compounds were tested in a biochemical binding assay using Menin protein at 2 nM (N6his-tev-Menin_4i80, PB-20-1459) and the substrate cRho110-Ahx-MBM1/MBM2 peptide (UbiQ, UbiQ-Q20201030; cRh110-Ahx-[…]-QRVPALLLPPG-NH2) at 1 nM.384 Low volume black plates (Corning #4514) were used. 5 μL/well compound or 3% DMSO was added at 10-fold serial dilutions in DMSO from 10 μM. 5 μL/well cRho110-Ahx-MBM1/MBM2 peptide or binding buffer (50 mM Tris pH 7.5, 50 mM NaCl, 1 mM TCEP, 0.01% BGG, 0.01% Brij-35) was added to all wells. 5 μL/well Menin protein or binding buffer (50 mM Tris pH 7.5, 50 mM NaCl, 1 mM TCEP, 0.01% BGG, 0.01% Brij-35) was added to all wells. Plates were read on an EnVision plate reader (Perkin Elmer) with excitation at 480 nm and emission at 535 nm P+S, and measured every 5 minutes for 180 minutes.
row,Structure (SMILES),IC50 [nM]
1,"COCCN(C)CCC[C@H](C(C)C)N1CCC(C(=O)c2cn(-c3ccc(F)cc3C(=O)N(C(C)C)C(C)C)c3cnccc23)CC1 (racemic) [US20240335431, Example 23]",7
2,"CC(C)N(C(=O)c1cc(F)ccc1-n1cc(C(=O)C2CCN(C(=O)[C@H]3NC[C@@H]4CC[C@@H]43)CC2)c2ccncc21)C(C)C (relative stereo) [US20240335431, Example 25]",27
3,"CC(C)N(C(=O)c1cc(F)ccc1-n1cc(C(=O)[C@@H]2CCCN(C(=O)[C@H]3N[C@@H]4CC[C@H]3C4)CC2)c2ccncc21)C(C)C (relative stereo) [US20240335431, Example 45]",36
4,"CCN(C(=O)c1cc(F)ccc1-n1c(C)c(C(=O)C2CCN(C(=O)[C@@H]3CCC(C)(C)N3)CC2)c2ccncc21)C(C)C (single isomer, unassigned) [US20240335431, Example 50-1]",5500
5,"Cc1c(C(=O)C2CCN(C(=O)[C@H]3NC[C@@H]4C[C@@H]43)CC2)c2ccncc2n1-c1ccc(F)cc1C(=O)N(C(C)C)[C@H](C)C(F)(F)F (single isomer, unassigned) [US20240335431, Example 57-1]",33
6,"CCN(C(=O)c1cc(F)ccc1-n1c(C)c(C(=O)[C@@H]2CCN(C(=O)[C@@H]3CCC4(CC4)N3)[C@@H](C)C2)c2ccncc21)C(C)C (single isomer, unassigned; form 1) [US20240335431, Example 52-1]",16
7,"CC(C)N(C(=O)c1cc(F)ccc1-n1cc(C(=O)[C@H]2CCN(C[C@H]3CC[C@H](NS(C)(=O)=O)CC3)C2)c2ccncc21)C(C)C [US20240335431, Example 1]",29
8,"CC(C)N(C(=O)c1cc(F)ccc1-n1cc(C(=O)[C@H]2CCN(C(=O)[C@H]3N[C@@H]4CC[C@H]3C4)C2)c2ccncc21)C(C)C [US20240335431, Example 2]",47
9,"CC(C)N(C(=O)c1cc(F)ccc1-n1cc(C(=O)[C@@H]2CCN(C(=O)[C@H]3N[C@@H]4CC[C@H]3C4)C2)c2ccncc21)C(C)C [US20240335431, Example 3]",25
10,"CC(C)N(C(=O)c1cc(F)ccc1-n1cc(C(=O)C2CN(C(=O)[C@H]3NC4CCC3CC4)C2)c2ccncc21)C(C)C [US20240335431, Example 6]",42
11,"CC(C)N(C(=O)c1cc(F)ccc1-n1cc(C(=O)C2CN(C(=O)[C@H]3N[C@H]4C[C@@H]3[C@@H](F)C4)C2)c2ccncc21)C(C)C [US20240335431, Example 7]",24
12,"CCN(C(=O)c1cc(F)ccc1-n1cc(C(=O)C2CN(C(=O)[C@H]3N[C@@H]4CC[C@H]3C4)C2)c2ccncc21)C(C)C [US20240335431, Example 8]",27
13,"CC(C)c1ncccc1-c1cc(F)ccc1-n1cc(C(=O)C2CN(C(=O)[C@H]3N[C@@H]4CC[C@H]3C4)C2)c2ccncc21 [US20240335431, Example 10]",4
14,"CC(C)c1cnccc1-c1cc(F)ccc1-n1cc(C(=O)C2CN(C(=O)[C@H]3N[C@@H]4CC[C@H]3C4)C2)c2ccncc21 [US20240335431, Example 11]",4
15,"CC(C)c1ncsc1-c1cc(F)ccc1-n1cc(C(=O)C2CN(C(=O)[C@H]3N[C@@H]4CC[C@H]3C4)C2)c2ccncc21 [US20240335431, Example 12]",6
16,"CC(C)(F)c1ncccc1-c1cc(F)ccc1-n1cc(C(=O)C2CN(C(=O)[C@H]3N[C@@H]4CC[C@H]3C4)C2)c2ccncc21 [US20240335431, Example 13]",4
17,"CC(C)N(C(=O)c1cc(F)ccc1-n1cc(C(=O)C2CN(C(=O)[C@H]3N[C@@H]4CC[C@H]3C4)C2)c2ccnnc21)C(C)C [US20240335431, Example 14]",139
18,"CC(C)N(C(=O)c1cc(F)ccc1-n1cc(C(=O)C2CCN(C(=O)[C@H]3N[C@@H]4CC[C@H]3C4)CC2)c2ccncc21)C(C)C [US20240335431, Example 16]",21
19,"CC(C)N(C(=O)c1cc(F)ccc1-n1cc(C(=O)C2CCN(C[C@H]3CC[C@H](NS(C)(=O)=O)CC3)CC2)c2ccncc21)C(C)C [US20240335431, Example 17]",21
20,"CC(C)N(C(=O)c1cc(F)ccc1-n1cc(C(=O)C2CCN(C(=O)[C@H]3NC[C@@H]4C[C@@H]43)CC2)c2ccncc21)C(C)C [US20240335431, Example 19]",16
21,"CC(C)N(C(=O)c1cc(F)ccc1-n1cc(C(=O)C2CCN(C(=O)[C@@H]3CCC(C)(C)N3)CC2)c2ccncc21)C(C)C [US20240335431, Example 27]",25
22,"C[C@@H]1CC[C@H](C)N1C(=O)c1cc(F)ccc1-n1cc(C(=O)C2CCN(C(=O)[C@H]3N[C@@H]4CC[C@H]3C4)CC2)c2ccncc21 [US20240335431, Example 32]",36

# More lines, in order of falling IC50, values ahead:
row,IC50 [nM],Structure (SMILES)
1,2150,"Cc1c(C(=O)C2CCN(C(=O)[C@@H]3CCC(C)(C)N3)CC2)c2ccncc2n1-c1ccc(F)cc1C(=O)N(C(C)C)C(C)C (single isomer, unassigned) [US20240335431, Example 56-1]"
2,2140,"CCN(C(=O)c1cc(F)ccc1-n1c(C)c(C(=O)C2CCN(C(=O)[C@@H]3CCC4(CC4)N3)CC2)c2ccncc21)C(C)C (single isomer, unassigned) [US20240335431, Example 49-1]"
3,1340,"Cc1c(C(=O)C2CCN(C(=O)[C@H]3NC[C@@H]4C[C@@H]43)CC2)c2ccncc2n1-c1ccc(F)cc1C(=O)N(C(C)C)C(C)C (single isomer, unassigned) [US20240335431, Example 55-1]"
4,778,"Cc1c(C(=O)C2CCN(C(=O)[C@H]3NC[C@@H]4C[C@@H]43)CC2)c2ccncc2n1-c1ccc(F)cc1C(=O)N(CC(F)(F)F)C(C)C (single isomer, unassigned) [US20240335431, Example 51-1]"
5,351,"Cc1c(C(=O)C2CCN(C(=O)[C@@H]3CCC4(CC4)N3)CC2)c2ccncc2n1-c1ccc(F)cc1C(=O)N1[C@H](C)COC[C@H]1C (single isomer, unassigned) [US20240335431, Example 58-1]"
6,54,"CC(C)N(C(=O)c1cc(F)ccc1-n1cc(C(=O)[C@@H]2CCN(C[C@H]3CC[C@H](NS(C)(=O)=O)CC3)C2)c2ccncc21)C(C)C [US20240335431, Example 4]"
7,51,"CCN(C(=O)c1cc(F)ccc1-n1cc(C(=O)C2CN(C(=O)[C@H]3NC4CCC3CC4)C2)c2ccncc21)C(C)C [US20240335431, Example 9]"
8,43,"CC(C)N(C(=O)c1cc(F)ccc1-n1cc(C(=O)C2CCN(C(=O)[C@@H]3CC4(CC4)CN3)CC2)c2ccncc21)C(C)C [US20240335431, Example 26]"
9,37,"C=C1C[C@@H]2CC[C@H]1[C@@H](C(=O)N1CCC(C(=O)c3cn(-c4ccc(F)cc4C(=O)N(C(C)C)C(C)C)c4cnccc34)CC1)N2 [US20240335431, Example 18]"
10,37,"C[C@@H]1CCC[C@H](C)N1C(=O)c1cc(F)ccc1-n1cc(C(=O)C2CCN(C(=O)[C@H]3N[C@@H]4CC[C@H]3C4)CC2)c2ccncc21 [US20240335431, Example 33]"
11,25,"CC(C)N(C(=O)c1cc(F)ccc1-n1cc(C(=O)C2CCN(C(=O)[C@H]3N[C@H]4C[C@@H]3[C@@H](F)C4)CC2)c2ccncc21)C(C)C [US20240335431, Example 22]"
12,19,"CC(C)N(C(=O)c1cc(F)ccc1-n1cc(C(=O)C2CCN(C(=O)[C@@H]3CCC4(CC4)N3)CC2)c2ccncc21)C(C)C [US20240335431, Example 24]"
13,18,"CCN(C(=O)c1cc(F)ccc1-n1c(C)c(C(=O)[C@@H]2CCN(C(=O)[C@@H]3CCC4(CC4)N3)[C@@H](C)C2)c2ccncc21)C(C)C (single isomer, unassigned; form 2) [US20240335431, Example 52-2]"
14,18,"CC(C)N(C(=O)c1cc(F)ccc1-n1cc(C(=O)C2CN(C(=O)[C@H]3N[C@@H]4CC[C@H]3C4)C2)c2ccncc21)C(C)C [US20240335431, Example 5]"
15,17,"CC(C)N(C(=O)c1cc(F)ccc1-n1cc(C(=O)C2CN(C(=O)[C@H]3N[C@@H]4CC[C@H]3C4)C2)c2ccnc(F)c21)C(C)C [US20240335431, Example 15]"
16,17,"CCN(C(=O)c1cc(F)ccc1-n1cc(C(=O)C2CCN(C(=O)[C@H]3N[C@H]4C[C@@H]3[C@@H](F)C4)CC2)c2ccncc21)C(C)C [US20240335431, Example 30]"
17,16,"CC(C)N(C(=O)c1cc(F)ccc1-n1cc(C(=O)C2CCN(C(=O)[C@H]3NC[C@@H]4CCC[C@@H]43)CC2)c2ccncc21)C(C)C [US20240335431, Example 21]"
18,10,"CCN(C(=O)c1cc(F)ccc1-n1cc(C(=O)C2CCN(C(=O)[C@H]3N[C@@H]4CC[C@H]3C4)CC2)c2ccncc21)C(C)C [US20240335431, Example 31]"
